Laboratory results: patent US20260297060A1, “COMPOUNDS FOR THE DEGRADATION OF MUTANT BRAF” (C4 THERAPEUTICS, INC., priority 2023, published 2026)
Like-named read-outs stand apart in the source and are kept apart here.

Target: T1, BRAF V600E (Homo sapiens, UniProt P15056+Q96SW2, V600E)
T1 construct: knock-in of the HiBiT tag to the endogenous BRAF V600E locus; host or cells: A375.10 (A375 clonal line, CRISPR HiBiT knock-in at the endogenous BRAF V600E locus)
Assay: BRAF V600E HiBiT Degradation Assay
Format: cell-based
Summary of the method: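 Endogenous HiBiT knock-in on BRAF V600E in A375 cells (clone A375.10); 11-point half-log series, top 10 μM, 2, 6 or 24 h at 37° C. Lytic HiBiT luminescence, background-subtracted, normalized to DMSO; 4-parameter fit gives DC50, Emax (residual protein) and IP (inflection point).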

[1] = A375.10 cells, BRAF V600E, 2 hours, inflection point, read-out: HiBiT-Degradation A375.10 BRAF 2 hours IP
[2] = A375.10 cells, BRAF V600E, 2 hours, read-out: HiBiT-Degradation A375.10 BRAF 2 hours DC50
[3] = A375.10 cells, BRAF V600E, 2 hours, residual protein remaining, read-out: HiBiT-Degradation A375.10 BRAF 2 hours Emax
[4] = A375.10 cells, BRAF V600E, 6 hours, inflection point, read-out: HiBiT-Degradation A375.10 BRAF 6 hours IP
[5] = A375.10 cells, BRAF V600E, 6 hours, read-out: HiBiT-Degradation A375.10 BRAF 6 hours DC50
[6] = A375.10 cells, BRAF V600E, 6 hours, residual protein remaining, read-out: HiBiT-Degradation A375.10 BRAF 6 hours Emax
[7] = A375.10 cells, HiBiT, BRAF V600E, 24 hours, read-out: HiBiT-Degradation A375.10 BRAF 24 hours DC50
[8] = A375.10 cells, HiBiT, BRAF V600E, 24 hours, read-out: HiBiT-Degradation A375.10 BRAF 24 hours Emax
[9] = A375.10 cells, HiBiT, BRAF V600E, 24 hours, read-out: HiBiT-Degradation A375.10 BRAF 24 hours IP
[10] = read-out: HiBiT-Degradation A375.10 BRAF 2 hours DC50, A375.10 cells, BRAF V600E, 2 hours
[11] = read-out: HiBiT-Degradation A375.10 BRAF 2 hours Emax, A375.10 cells, BRAF V600E, 2 hours, residual protein remaining
[12] = read-out: HiBiT-Degradation A375.10 BRAF 2 hours IP, A375.10 cells, BRAF V600E, 2 hours, inflection point

T1 sequence (P15056 whole entry V600E): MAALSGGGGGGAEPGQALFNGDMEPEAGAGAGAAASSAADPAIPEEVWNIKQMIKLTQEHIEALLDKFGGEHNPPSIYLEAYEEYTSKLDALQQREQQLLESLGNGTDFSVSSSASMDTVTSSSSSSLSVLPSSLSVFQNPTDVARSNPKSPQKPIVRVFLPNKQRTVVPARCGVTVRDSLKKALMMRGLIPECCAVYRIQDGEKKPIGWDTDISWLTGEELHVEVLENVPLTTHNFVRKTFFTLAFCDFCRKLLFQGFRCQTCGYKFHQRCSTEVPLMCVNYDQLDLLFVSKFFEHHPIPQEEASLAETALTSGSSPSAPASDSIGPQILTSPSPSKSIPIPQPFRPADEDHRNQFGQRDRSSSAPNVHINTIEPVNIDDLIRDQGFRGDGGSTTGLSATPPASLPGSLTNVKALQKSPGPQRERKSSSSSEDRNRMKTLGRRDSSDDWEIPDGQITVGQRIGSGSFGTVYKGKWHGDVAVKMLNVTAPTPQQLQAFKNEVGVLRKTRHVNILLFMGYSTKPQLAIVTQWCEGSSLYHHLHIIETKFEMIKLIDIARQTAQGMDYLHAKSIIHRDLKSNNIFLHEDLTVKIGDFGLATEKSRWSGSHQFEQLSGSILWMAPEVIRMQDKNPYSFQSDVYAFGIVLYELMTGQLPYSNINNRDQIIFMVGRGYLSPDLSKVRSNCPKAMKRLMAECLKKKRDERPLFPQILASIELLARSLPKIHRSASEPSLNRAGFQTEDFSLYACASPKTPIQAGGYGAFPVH
T1 sequence (Q96SW2 whole entry): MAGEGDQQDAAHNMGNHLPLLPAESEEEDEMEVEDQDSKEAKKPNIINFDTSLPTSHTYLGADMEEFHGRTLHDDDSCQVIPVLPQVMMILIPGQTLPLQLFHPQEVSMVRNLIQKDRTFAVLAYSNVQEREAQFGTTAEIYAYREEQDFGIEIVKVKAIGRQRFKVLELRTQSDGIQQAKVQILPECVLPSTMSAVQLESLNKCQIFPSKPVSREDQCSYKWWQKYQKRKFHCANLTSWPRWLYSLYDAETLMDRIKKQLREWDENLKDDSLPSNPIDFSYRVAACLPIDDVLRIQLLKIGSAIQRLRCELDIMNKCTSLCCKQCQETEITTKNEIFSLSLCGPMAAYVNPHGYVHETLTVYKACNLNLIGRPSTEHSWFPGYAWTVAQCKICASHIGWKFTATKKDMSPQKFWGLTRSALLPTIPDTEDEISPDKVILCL
T1 sequence (Q16531 whole entry partner): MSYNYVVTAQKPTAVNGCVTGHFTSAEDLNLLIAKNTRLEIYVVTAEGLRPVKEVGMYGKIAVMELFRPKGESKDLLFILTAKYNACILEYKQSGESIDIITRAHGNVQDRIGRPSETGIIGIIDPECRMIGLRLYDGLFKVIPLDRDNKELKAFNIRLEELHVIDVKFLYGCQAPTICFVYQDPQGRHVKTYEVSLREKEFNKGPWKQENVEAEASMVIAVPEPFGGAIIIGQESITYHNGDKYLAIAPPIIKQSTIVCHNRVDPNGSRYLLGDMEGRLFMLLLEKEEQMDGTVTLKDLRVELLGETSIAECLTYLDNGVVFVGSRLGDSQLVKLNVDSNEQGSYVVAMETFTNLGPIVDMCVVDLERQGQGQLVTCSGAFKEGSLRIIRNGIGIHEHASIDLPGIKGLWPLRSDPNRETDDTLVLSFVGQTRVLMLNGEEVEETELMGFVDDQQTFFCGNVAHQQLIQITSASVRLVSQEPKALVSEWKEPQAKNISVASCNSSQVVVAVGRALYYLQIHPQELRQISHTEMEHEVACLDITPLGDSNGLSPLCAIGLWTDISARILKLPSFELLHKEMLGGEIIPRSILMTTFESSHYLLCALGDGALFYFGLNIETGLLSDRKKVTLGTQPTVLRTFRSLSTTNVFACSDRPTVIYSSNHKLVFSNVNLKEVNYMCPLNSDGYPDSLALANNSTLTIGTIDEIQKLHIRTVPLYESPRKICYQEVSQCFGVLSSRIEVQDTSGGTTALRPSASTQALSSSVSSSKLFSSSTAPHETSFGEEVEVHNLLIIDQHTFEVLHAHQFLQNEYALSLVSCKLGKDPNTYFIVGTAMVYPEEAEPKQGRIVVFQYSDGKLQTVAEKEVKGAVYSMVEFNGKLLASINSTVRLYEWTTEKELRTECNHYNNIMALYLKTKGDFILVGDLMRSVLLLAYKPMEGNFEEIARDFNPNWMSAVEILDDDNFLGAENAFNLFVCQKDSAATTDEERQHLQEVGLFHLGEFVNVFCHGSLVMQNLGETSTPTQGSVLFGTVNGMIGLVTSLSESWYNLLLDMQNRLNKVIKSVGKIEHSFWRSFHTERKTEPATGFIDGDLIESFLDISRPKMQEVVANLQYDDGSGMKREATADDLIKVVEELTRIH

CC(C)S(=O)(=O)Nc1ccc(F)c(Oc2ccc3ncn([C@H]4COC5(CCN(C6CCC(c7cc8c(cc7F)c(N7CCC(=O)NC7=O)nn8C)CC6)CC5)C4)c(=O)c3c2)c1C#N (single isomer, unassigned) [Compound 87]
< 1000 nM: DC50 [1] | DC50 [2] | DC50 [4] | DC50 [5] | DC50 [7] | DC50 [9]
< 50%: Emax [3] | Emax [6] | Emax [8]

CCN(C)S(=O)(=O)Nc1ccc(F)c(Oc2ccc3ncn([C@H]4COC5(CCN(C6CCC(c7cc8c(cc7F)c(N7CCC(=O)NC7=O)nn8C)CC6)CC5)C4)c(=O)c3c2)c1F (single isomer, unassigned) [Compound 71]
< 1000 nM: DC50 [1] | DC50 [2] | DC50 [4] | DC50 [5] | DC50 [7] | DC50 [9]
< 50%: Emax [3] | Emax [6] | Emax [8]

Cn1nc(N2CCC(=O)NC2=O)c2cc(F)c(N3CC4(CC(N5CCC6(CC5)CC(n5cnc7ccc(Oc8c(F)ccc(NS(=O)(=O)N9CC[C@@H](F)C9)c8C#N)cc7c5=O)C6)C4)C3)cc21 [Compound 261, (3R)-N-[2-cyano-3-[3-[7-[2-[3-(2,4-dioxohexahydropyrimidin-1-yl)-5-fluoro-1-methyl-indazol-6-yl]-2-azaspiro[3.3]heptan-6-yl]-7-azaspiro[3.5]nonan-2-yl]-4-oxo-quinazolin-6-yl]oxy-4-fluoro-phenyl]-3-fluoro-pyrrolidine-1-sulfonamide]
< 1000 nM: DC50 [10] | DC50 [12]
< 50%: Emax [11]

CCN(C)S(=O)(=O)Nc1ccc(F)c(Oc2ccc3ncn(C4CC5(CCN(C6CCC(c7cc8c(cc7F)c(N7CCC(=O)NC7=O)nn8C)CC6F)CC5)C4)c(=O)c3c2)c1C#N (single isomer, unassigned) [Compound 85]
< 1000 nM: DC50 [1] | DC50 [2]
*** (<=50%): HiBiT-Degradation A375.10 BRAF 2 hours Emax

CC(C)S(=O)(=O)Nc1ccc(F)c(Oc2ccc3ncn(C4CC5(CCN(C6CC7(C6)CN(c6cc8c(cc6F)c(N6CCC(=O)NC6=O)nn8C)C7)CC5)C4)c(=O)c3c2)c1C#N (stereo not drawn) [Compound 273, N-[2-cyano-3-[3-[7-[2-[3-(2,4-dioxohexahydropyrimidin-1-yl)-5-fluoro-1-methyl-indazol-6-yl]-2-azaspiro[3.3]heptan-6-yl]-7-azaspiro[3.5]nonan-2-yl]-4-oxo-quinazolin-6-yl]oxy-4-fluoro-phenyl]propane-2-sulfonamide]
< 1000 nM: DC50 [1] | DC50 [2]
< 50%: Emax [11]

CCN(C)S(=O)(=O)Nc1ccc(F)c(Oc2ccc3ncn([C@H]4COC5(CCN(C6CC7(C6)CN(c6ccc(NC8CCC(=O)NC8=O)cc6F)C7)CC5)C4)c(=O)c3c2)c1C#N (stereo partly drawn) [Compound 35, (3R)-3-[6-[2-cyano-3-[[ethyl(methyl)sulfamoyl]amino]-6-fluoro-phenoxy]-4-oxo-quinazolin-3-yl]-8-[2-[4-[(2,6-dioxo-3-piperidyl)amino]-2-fluoro-phenyl]-2-azaspiro[3.3]heptan-6-yl]-1-oxa-8-azaspiro[4.5]decane]
< 50%: Emax [3] | Emax [6] | Emax [8]
< 1000 nM: DC50 [1] | DC50 [2] | DC50 [4] | DC50 [5] | DC50 [7] | DC50 [9]

CCN(C)S(=O)(=O)Nc1ccc(F)c(Oc2ccc3ncn([C@@H]4COC5(CCN(C6CCC(c7cc8c(cc7F)c(N7CCC(=O)NC7=O)nn8C)CC6)CC5)C4)c(=O)c3c2F)c1C#N (single isomer, unassigned) [Compound 46]
< 1000 nM: DC50 [1] | DC50 [2] | DC50 [4] | DC50 [5] | DC50 [7] | DC50 [9]
< 50%: Emax [6] | Emax [8] | Emax [11]

Cn1nc(N2CCC(=O)NC2=O)c2cc(F)c(C3CCC(N4CCC5(CC4)C[C@@H](n4cnc6ccc(Oc7c(F)ccc(NS(=O)(=O)C8CCCC8)c7C#N)cc6c4=O)CO5)CC3)cc21 (single isomer, unassigned) [Compound 113]
< 1000 nM: DC50 [1] | DC50 [2] | DC50 [4] | DC50 [5] | DC50 [7] | DC50 [9]
< 50%: Emax [3] | Emax [6] | Emax [8]

CN(CCO)S(=O)(=O)Nc1ccc(F)c(Oc2ccc3ncn(C4CC5(CCN(C6CC7(C6)CN(c6cc8c(cc6F)c(N6CCC(=O)NC6=O)nn8C)C7)CC5)C4)c(=O)c3c2)c1C#N (stereo not drawn) [Compound 151, 6-[2-cyano-6-fluoro-3-[[2-hydroxyethyl(methyl)sulfamoyl]amino]phenoxy]-3-[7-[2-[3-(2,4-dioxohexahydropyrimidin-1-yl)-5-fluoro-1-methyl-indazol-6-yl]-2-azaspiro[3.3]heptan-6-yl]-7-azaspiro[3.5]nonan-2-yl]-4-oxo-quinazoline]
< 1000 nM: DC50 [12] | DC50 (read-out: HiBiT-Degradation A375.10 BRAF 6 hours DC50, A375.10 cells, BRAF V600E, 6 hours) | DC50 (read-out: HiBiT-Degradation A375.10 BRAF 6 hours IP, A375.10 cells, BRAF V600E, 6 hours, inflection point) | DC50 (read-out: HiBiT-Degradation A375.10 BRAF 24 hours DC50, A375.10 cells, HiBiT, BRAF V600E, 24 hours) | DC50 (read-out: HiBiT-Degradation A375.10 BRAF 24 hours IP, A375.10 cells, HiBiT, BRAF V600E, 24 hours)
1000 to 10000 nM: DC50 [10]
< 50%: Emax [6] | Emax [8]
50 to 90%: Emax [3]

Cn1nc(N2CCC(=O)NC2=O)c2cc(F)c(C3CCC(N4CCC5(CC4)CC(n4cnc6ccc(Oc7c(F)ccc(NS(=O)(=O)N8CC[C@@H](F)C8)c7C#N)cc6c4=O)C5)CC3)cc21 (single isomer, unassigned) [Compound 122]
< 1000 nM: DC50 [1] | DC50 [2] | DC50 [4] | DC50 [5] | DC50 [7] | DC50 [9]
< 50%: Emax [3] | Emax [6] | Emax [8]

CCN(C)S(=O)(=O)Nc1ccc(F)c(Oc2ccc3ncn([C@H]4CCC5(CCN(C6CCC(c7ccc(NC8CCC(=O)NC8=O)cc7F)CC6)CC5)C4)c(=O)c3c2)c1C#N (single isomer, unassigned) [Compound 24]
< 1000 nM: DC50 [1] | DC50 [2] | DC50 [4] | DC50 [5] | DC50 [7] | DC50 [9]
< 50%: Emax [3] | Emax [6] | Emax [8]

Cn1nc(N2CCC(=O)NC2=O)c2cc(F)c(C3CCC(N4CCC5(CC4)C[C@@H](n4cnc6ccc(Oc7c(F)ccc(NS(=O)(=O)N8CC[C@@H](F)C8)c7C#N)cc6c4=O)CO5)CC3)cc21 (single isomer, unassigned) [Compound 121]
< 1000 nM: DC50 [1] | DC50 [2] | DC50 [4] | DC50 [5] | DC50 [7] | DC50 [9]
< 50%: Emax [3] | Emax [6] | Emax [8]

CCN(C)S(=O)(=O)Nc1ccc(F)c(Oc2ccc3ncn(C4CC5(C4)CN(C4CCC(c6cc7c(cc6F)c(N6CCC(=O)NC6=O)nn7C)CC4)C5)c(=O)c3c2)c1C#N (single isomer, unassigned) [Compound 204, 6-[2-cyano-3-[[ethyl(methyl)sulfamoyl]amino]-6-fluoro-phenoxy]-3-[2-[4-[3-(2,4-dioxohexahydropyrimidin-1-yl)-5-fluoro-1-methyl-indazol-6-yl]cyclohexyl]-2-azaspiro[3.3]heptan-6-yl]-4-oxo-quinazoline]
*** (<=50%): HiBiT-Degradation A375.10 BRAF 2 hours Emax | HiBiT-Degradation A375.10 BRAF 24 hours Emax (A375.10 cells, HiBiT, BRAF V600E, 24 hours)
< 1000 nM: DC50 [1] | DC50 [2] | DC50 [7] | DC50 [9]

CO[C@@H]1CCN(S(=O)(=O)Nc2ccc(F)c(Oc3ccc4ncn(C5CC6(CCN(C7CCC(c8cc9c(cc8F)c(N8CCC(=O)NC8=O)nn9C)CC7)CC6)C5)c(=O)c4c3)c2C#N)C1 (single isomer, unassigned) [Compound 101]
< 50%: Emax [3] | Emax [6] | Emax [8]
< 1000 nM: DC50 [1] | DC50 [2] | DC50 [4] | DC50 [5] | DC50 [7] | DC50 [9]

CCN(C)S(=O)(=O)Nc1ccc(F)c(Oc2ccc3ncn([C@@H]4CCC5(CCN(C6CCC(c7cc8c(cc7F)c(N7CCC(=O)NC7=O)nn8C)CC6)CC5)C4)c(=O)c3c2)c1C#N (single isomer, unassigned) [Compound 31]
< 1000 nM: DC50 [1]
> 10000 nM: DC50 [2]
50 to 90%: Emax [11]
